Legend:
Hep G2 cells [1] = test: In vitro expression of firefly-luciferase, Hep G2; format: cell-based; conditions: cirRNA (SEQ ID NO: 1) LNPs; firefly-luciferase luminescence; Hep G2 cells
Summary of the method: (§1)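 First, cells were dosed with RNA lipid nanoparticles encoding firefly luciferase (100 ng/mL). Second, at 72 h they were washed and lysed. Third, lysate luciferase activity was read with a luminometer.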

RAW 264.7 cells [2] = test: In vitro toxicity (CellTiter-Glo cell viability), RAW 264.7; format: cell-based; conditions: cirRNA (SEQ ID NO: 1) LNPs; RAW 264.7 cells;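 also: percent of untreated cells luminescence signal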
Summary of the method: (§2)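 Toxicity of RNA-LNPs (1 μg/mL) is reported as cell viability, calculated from CellTiter-Glo luminescence measured at 72 hours after transfection.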

[3] = LNP zeta potential (Zetasizer); format: physicochemical; conditions: LNP with cirRNA (SEQ ID NO: 1)
Summary of the method: (§3)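 Dynamic light scattering and zeta potential measurements were run on PBS-dialyzed LNPs, which had been formed by microfluidic mixing at 12 ml/min with final lipid at 1.5 mM to 6 mM. RNA content and percent encapsulation were determined by Ribogreen with and without Triton X-100.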

RAW 264.7 cells [4] = test: In vitro expression of firefly-luciferase, RAW 264.7; format: cell-based; conditions: cirRNA (SEQ ID NO: 1) LNPs; firefly-luciferase luminescence; RAW 264.7 cells
Summary of the method: as §1

[5] = LNP size and polydispersity index (PDI) by dynamic light scattering; format: physicochemical; conditions: LNP with cirRNA (SEQ ID NO: 1); for Size: in nm (unit assumed)
Summary of the method: as §3

[6] = RNA encapsulation efficacy by Quant-IT Ribogreen kit; format: physicochemical; conditions: LNP with cirRNA (SEQ ID NO: 1)
Summary of the method: as §3

Hep G2 cells [7] = test: In vitro toxicity (CellTiter-Glo cell viability), Hep G2; format: cell-based; conditions: cirRNA (SEQ ID NO: 1) LNPs; Hep G2 cells;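 also: percent of untreated cells luminescence signal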
Summary of the method: as §2

BALB/C mice = test: In vivo expression, whole-body luminescence (IVIS); conditions: cirRNA (SEQ ID NO: 1) LNPs, BALB/C mice
Procedure: 6-8 week old, female BALB/C mice were injected with 0.05 mg*kg-1 of RNA-LNPs encoding for firefly-luciferase by intravenous injection. At 6 hours post injection, animals were intraperitoneally injected with 15 mg/ml of Luciferin substrate and whole-body luminescence was determined by a bioluminescent in vivo imaging system (IVIS).

## CCCCC/C=C\CCOC(=O)CCCCCN(CCCCCCCCOC(=O)C(CCCCCC)CCCCCCCC)CCOC(=O)NCCCN(CC)CC (stereo not drawn) [Lipid 186]
Hep G2 cells [1]
  In vitro Expression HepG2: 1.51E+05
RAW 264.7 cells [2]
  In vitro Viability RAW: 0%
[3]
  Zeta (mV): 14.31 mV
RAW 264.7 cells [4]
  In vitro Expression RAW: 2.82E+02
[5]
  PDI: 0.4618
  Size: 122.7
[6]
  Encapsulation Efficiency %: 90%
Hep G2 cells [7]
  In vitro Viability HepG2: 88%
BALB/C mice
  In vivo Expression (Whole Body): 2.96E+06

## CCCCC/C=C\CCOC(=O)CCCCCN(CCCCCCCCOC(=O)C(CCCCCC)CCCCCCCC)CCOC(=O)NCCN1CCN(C)CC1 (stereo not drawn) [Lipid 187]
Hep G2 cells [1]
  In vitro Expression HepG2: 3.27E+05
RAW 264.7 cells [2]
  In vitro Viability RAW: 0%
[3]
  Zeta (mV): 8.983 mV
RAW 264.7 cells [4]
  In vitro Expression RAW: 7.47E+04
[5]
  PDI: 0.277
  Size: 65.71
[6]
  Encapsulation Efficiency %: 92%
Hep G2 cells [7]
  In vitro Viability HepG2: 93%
BALB/C mice
  In vivo Expression (Whole Body): 2.29E+06

## CCCCC/C=C\CCOC(=O)CCCCCN(CCCCCCCCOC(=O)C(CCCCCC)CCCCCCCC)CCOC(=O)NCCN1CCOCC1 (stereo not drawn) [Lipid 188]
Hep G2 cells [1]
  In vitro Expression HepG2: 1.12E+04
RAW 264.7 cells [2]
  In vitro Viability RAW: 87%
[3]
  Zeta (mV): −9.419 mV
RAW 264.7 cells [4]
  In vitro Expression RAW: 2.82E+03
[5]
  PDI: 0.07877
  Size: 73.74
[6]
  Encapsulation Efficiency %: 88%
Hep G2 cells [7]
  In vitro Viability HepG2: 96%
BALB/C mice
  In vivo Expression (Whole Body): 2.17E+07

## CCCCC/C=C\CCOC(=O)CCCCCN(CCCCCCCCOC(=O)C(CCCCCC)CCCCCCCC)CCOC(=O)NCCN(C)C (stereo not drawn) [Lipid 189]
Hep G2 cells [1]
  In vitro Expression HepG2: 9.85E+04
RAW 264.7 cells [2]
  In vitro Viability RAW: 1%
[3]
  Zeta (mV): 18.88 mV
RAW 264.7 cells [4]
  In vitro Expression RAW: 2.71E+02
[5]
  PDI: 0.4058
  Size: 84.04
[6]
  Encapsulation Efficiency %: 95%
Hep G2 cells [7]
  In vitro Viability HepG2: 89%
BALB/C mice
  In vivo Expression (Whole Body): 1.79E+06

## CCCCC/C=C\CCOC(=O)CCCCCN(CCCCCCCCOC(=O)C(CCCCCC)CCCCCCCC)CCOC(=O)NCCN1CCCC1 (stereo not drawn) [Lipid 191]
Hep G2 cells [1]
  In vitro Expression HepG2: 4.43E+04
RAW 264.7 cells [2]
  In vitro Viability RAW: 4%
[3]
  Zeta (mV): 12.32 mV
RAW 264.7 cells [4]
  In vitro Expression RAW: 1.22E+03
[5]
  PDI: 0.2327
  Size: 79.79
[6]
  Encapsulation Efficiency %: 91%
Hep G2 cells [7]
  In vitro Viability HepG2: 92%
BALB/C mice
  In vivo Expression (Whole Body): 1.02E+07

## CCCCC/C=C\CCOC(=O)CCCCCN(CCCCCCCCOC(=O)C(CCCCCC)CCCCCCCC)CCOC(=O)NCCN1CCCCC1 (stereo not drawn) [Lipid 192]
Hep G2 cells [1]
  In vitro Expression HepG2: 4.18E+04
RAW 264.7 cells [2]
  In vitro Viability RAW: 86%
[3]
  Zeta (mV): −7.77 mV
RAW 264.7 cells [4]
  In vitro Expression RAW: 8.42E+03
[5]
  PDI: 0.1344
  Size: 76.52
[6]
  Encapsulation Efficiency %: 92%
Hep G2 cells [7]
  In vitro Viability HepG2: 94%
BALB/C mice
  In vivo Expression (Whole Body): 8.52E+07

## CCCCCCCCCC(=O)OCCCCCCCN(CCCCCCCCOC(=O)C(CCCCCC)CCCCCCCC)CCOC(=O)NCCCN(C)C (stereo not drawn) [Lipid 193]
Hep G2 cells [1]
  In vitro Expression HepG2: 5.28E+05
RAW 264.7 cells [2]
  In vitro Viability RAW: 3%
[3]
  Zeta (mV): 15.29 mV
RAW 264.7 cells [4]
  In vitro Expression RAW: 1.70E+03
[5]
  PDI: 0.3634
  Size: 66.71
[6]
  Encapsulation Efficiency %: 94%
Hep G2 cells [7]
  In vitro Viability HepG2: 94%
BALB/C mice
  In vivo Expression (Whole Body): 1.00E+06

## CCCCCCCCCC(=O)OCCCCCCCN(CCCCCCCCOC(=O)C(CCCCCC)CCCCCCCC)CCOC(=O)NCc1ncc[nH]1 (stereo not drawn) [Lipid 198]
Hep G2 cells [1]
  In vitro Expression HepG2: 2.19E+04
RAW 264.7 cells [2]
  In vitro Viability RAW: 90%
[3]
  Zeta (mV): −3.471 mV
RAW 264.7 cells [4]
  In vitro Expression RAW: 8.39E+04
[5]
  PDI: 0.2199
  Size: 64.1
[6]
  Encapsulation Efficiency %: 94%
Hep G2 cells [7]
  In vitro Viability HepG2: 104%
BALB/C mice
  In vivo Expression (Whole Body): 9.90E+06

## CCCCCCCCCC(=O)OCCCCCCCN(CCCCCCCCOC(=O)C(CCCCCC)CCCCCCCC)CCOC(=O)NCCCN(CC)CC (stereo not drawn) [Lipid 199]
Hep G2 cells [1]
  In vitro Expression HepG2: 3.74E+05
RAW 264.7 cells [2]
  In vitro Viability RAW: 0%
[3]
  Zeta (mV): 13.62 mV
RAW 264.7 cells [4]
  In vitro Expression RAW: 1.29E+03
[5]
  PDI: 0.436
  Size: 97.91
[6]
  Encapsulation Efficiency %: 94%
Hep G2 cells [7]
  In vitro Viability HepG2: 87%
BALB/C mice
  In vivo Expression (Whole Body): 3.44E+05

## CCCCCCCCCC(=O)OCCCCCCCN(CCCCCCCCOC(=O)C(CCCCCC)CCCCCCCC)CCOC(=O)NCCN1CCN(C)CC1 (stereo not drawn) [Lipid 200]
Hep G2 cells [1]
  In vitro Expression HepG2: 4.46E+05
RAW 264.7 cells [2]
  In vitro Viability RAW: 0%
[3]
  Zeta (mV): 7.27 mV
RAW 264.7 cells [4]
  In vitro Expression RAW: 4.45E+04
[5]
  PDI: 0.2967
  Size: 82.06
[6]
  Encapsulation Efficiency %: 95%
Hep G2 cells [7]
  In vitro Viability HepG2: 103%
BALB/C mice
  In vivo Expression (Whole Body): 6.79E+05

## CCCCCCCCCC(=O)OCCCCCCCCN(CCCCCCCCOC(=O)CCCCCCCCC)CCOC(=O)NCCN(C)C [Lipid 202]
Hep G2 cells [1]
  In vitro Expression HepG2: 2.49E+05
RAW 264.7 cells [2]
  In vitro Viability RAW: 92%
[3]
  Zeta (mV): 16.36 mV
RAW 264.7 cells [4]
  In vitro Expression RAW: 3.35E+02
[5]
  PDI: 0.1932
  Size: 60.75
[6]
  Encapsulation Efficiency %: 93%
Hep G2 cells [7]
  In vitro Viability HepG2: 94%
BALB/C mice
  In vivo Expression (Whole Body): 2.33E+05

## CCCCCCCCCC(=O)OCCCCCCCCN(CCCCCCCCOC(=O)CCCCCCCCC)CCOC(=O)NCc1ncc[nH]1 [Lipid 203]
Hep G2 cells [1]
  In vitro Expression HepG2: 1.12E+04
RAW 264.7 cells [2]
  In vitro Viability RAW: 91%
[3]
  Zeta (mV): −0.09389 mV
RAW 264.7 cells [4]
  In vitro Expression RAW: 7.82E+04
[5]
  PDI: 0.08783
  Size: 98.65
[6]
  Encapsulation Efficiency %: 73%
Hep G2 cells [7]
  In vitro Viability HepG2: 103%
BALB/C mice
  In vivo Expression (Whole Body): 6.84E+06

## CCCCCCCCCC(=O)OCCCCCCCCN(CCCCCCCCOC(=O)CCCCCCCCC)CCOC(=O)NCCN1CCN(C)CC1 [Lipid 205]
Hep G2 cells [1]
  In vitro Expression HepG2: 5.81E+05
RAW 264.7 cells [2]
  In vitro Viability RAW: 95%
[3]
  Zeta (mV): 18.81 mV
RAW 264.7 cells [4]
  In vitro Expression RAW: 7.09E+03
[5]
  PDI: 0.1521
  Size: 61.16
[6]
  Encapsulation Efficiency %: 94%
Hep G2 cells [7]
  In vitro Viability HepG2: 94%
BALB/C mice
  In vivo Expression (Whole Body): 6.61E+05

## CCCCCCCCCC(=O)OCCCCCCCCN(CCCCCCCCOC(=O)CCCCCCCCC)CCOC(=O)NCCN1CCCC1 [Lipid 209]
Hep G2 cells [1]
  In vitro Expression HepG2: 3.81E+04
RAW 264.7 cells [2]
  In vitro Viability RAW: 95%
[3]
  Zeta (mV): 13.53 mV
RAW 264.7 cells [4]
  In vitro Expression RAW: 1.08E+02
[5]
  PDI: 0.1886
  Size: 86.68
[6]
  Encapsulation Efficiency %: 93%
Hep G2 cells [7]
  In vitro Viability HepG2: 96%
BALB/C mice
  In vivo Expression (Whole Body): 6.62E+05

## CCCCCCCC/C=C\CCCCCCCCN(CCCCCCCCOC(=O)C(CCCCCC)CCCCCCCC)CCOC(=O)NCCN(C)C (stereo not drawn) [Lipid 211]
Hep G2 cells [1]
  In vitro Expression HepG2: 1.14E+07
RAW 264.7 cells [2]
  In vitro Viability RAW: 91%
[3]
  Zeta (mV): 7.113 mV
RAW 264.7 cells [4]
  In vitro Expression RAW: 2.36E+05
[5]
  PDI: 0.2243
  Size: 97.77
[6]
  Encapsulation Efficiency %: 94%
Hep G2 cells [7]
  In vitro Viability HepG2: 90%
BALB/C mice
  In vivo Expression (Whole Body): 1.09E+07

— patent US12691070B2, “Cationic lipids and preparation method thereof” (RiboX Therapeutics HK Limited, priority 2023, dated 2026)
